Measurements from ChEMBL document CHEMBL5365506, “Novel Haloacethydrazides as AEP Inhibitors for Treating Alzheimer's Disease” (ACS Med Chem Lett, 2023).

Each compound was assayed against T1, Legumain (Homo sapiens, UniProt Q99538) (assay: Inhibition of human 8His-tagged AEP (V18 to Y433 residues) using Z-Ala-Ala-Asn-Rhl 10-(D-Pro) as substrate incubated for 30 mins followed by substrate addition by fluorescence based microplate reader analysis).
T1 sequence (Q99538 whole entry): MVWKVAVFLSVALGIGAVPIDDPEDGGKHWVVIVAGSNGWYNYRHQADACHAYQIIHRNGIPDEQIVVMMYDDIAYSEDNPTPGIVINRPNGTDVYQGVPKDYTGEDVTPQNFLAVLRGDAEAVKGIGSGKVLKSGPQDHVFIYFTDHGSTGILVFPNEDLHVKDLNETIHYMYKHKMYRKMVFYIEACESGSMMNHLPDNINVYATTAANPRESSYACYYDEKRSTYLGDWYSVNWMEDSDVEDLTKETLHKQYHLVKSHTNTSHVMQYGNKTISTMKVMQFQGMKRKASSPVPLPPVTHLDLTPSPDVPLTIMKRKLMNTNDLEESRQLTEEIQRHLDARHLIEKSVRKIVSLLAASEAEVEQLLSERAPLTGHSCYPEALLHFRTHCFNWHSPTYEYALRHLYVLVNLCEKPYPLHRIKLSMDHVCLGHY
With `C#CCOc1ccc(C2(C(=O)N3CCC[C@H]3C(=O)NN(CC(N)=O)C(=O)CF)CC2)cc1` the IC50 was 1 nM. With `COc1ccc(-c2ccc(S(=O)(=O)N3CCC[C@H]3C(=O)NN(CC(N)=O)C(=O)CF)cc2)cc1` the IC50 was 1 nM. `NC(=O)CN(NC(=O)[C@@H]1CCCN1C(=O)C1(c2ccc(Cl)cc2)CCC1)C(=O)CF` showed an IC50 of 1 nM. `C#Cc1ccc(C2(C(=O)N3CCC[C@H]3C(=O)NN(CC(N)=O)C(=O)CF)CC2)cc1` showed an IC50 of 1 nM.
